Key:
AII receptor = assay: Ligand-receptor binding assay, displacement of [125I]AII from rat adrenal cortex particulate fraction; conditions: 0.05 nM [125I]AII, 1 h incubation, read-out: Angiotensin II Receptor Binding IC50
Experimental: Angiotensin-II (AII) produces numerous biological responses (e.g. vasoconstriction) through stimulation of its receptors on cell membranes. […] After a 1 h incubation the reaction was terminated by addition of cold assay buffer. The bound and free radioactivity were rapidly separated through glass-fiber filters, and the trapped radioactivity was quantitated by scintillation counting.

Renal Hypertensive Rats = assay: Antihypertensive effect in awake renal hypertensive rats (ligation of left renal artery); type: in vivo, rat; conditions: for ED30: Rattus norvegicus, oral, read-out: Oral Antihypertensive Effects in Renal Hypertensive Rats ED30
Text: This procedure increases blood pressure by increasing renin production with consequent elevation of AII levels. […] Arterial blood pressure is continuously measured directly through a carotid artery cannula and recorded using a pressure transducer and a polygraph. Blood pressure levels after treatment are compared to pretreatment levels to determine the antihypertensive effects of the compounds.

Row | IC50 (AII receptor) [nM] | Molecule | ED30 (Renal Hypertensive Rats) [mg/kg] | Oral Antihypertensive Effects in Renal Hypertensive Rats ED30 (Renal Hypertensive Rats) [mg/kg]
1 | 3 | CCCc1nc(CC)c(C(=O)OCc2oc(=O)oc2C(C)(C)C)n1Cc1ccc(-c2ccccc2-c2nn[nH]n2)cc1 [Example 14, (5-(1.1-Dimethylethyl)-1.3-dioxa-cyclopenten-2-one-4-yl)methyl 4-ethyl-2-propyl-1-[[2'-(tetrazol-5-yl)biphenyl-4-yl)methyl]imidazole-5-carboxylate] | 0.3 | –
2 | 3 | CCCc1nc(CC)c(C(=O)OCc2oc(=O)oc2C)n1Cc1ccc(-c2ccccc2-c2nn[nH]n2)cc1 [Example 13, 1,3-Dioxa-5-methyl-cyclopenten-2-one-4-ylmethyl 4-ethyl-2-propyl-1-[[2'-(tetrazol-5-yl)biphenyl-4-yl]methyl]imidazole-5-carboxylate] | 0.1 | –
3 | – | Methoxydimethylacetoxymethyl 4-ethyl-2-propyl-1-[[2'-(tetrazol-5-yl)biphenyl-4-yl]methyl]imidazole-5-carboxylate [Example 8] | – | 0.03
4 | 4 | CCCc1nc(CC)c(C(=O)OC(C)OC(=O)OC)n1Cc1ccc(-c2ccccc2-c2nn[nH]n2)cc1 (stereo not drawn) [Example 11] | 0.02 | –
5 | 3 | CCCc1nc(CC)c(C(=O)OCOC(=O)OC)n1Cc1ccc(-c2ccccc2-c2nn[nH]n2)cc1 [Example 7] | – | –
6 | 6 | CCCc1nc(CC)c(C(=O)OCc2oc(=O)oc2-c2ccccc2)n1Cc1ccc(-c2ccccc2-c2nn[nH]n2)cc1 [Example 15] | 0.3 | –
7 | 100 | CCCc1nc(CC)c(C(=O)OCN(C)C)n1Cc1ccc(-c2ccccc2-c2nnn[nH]2)cc1 [Example 2, (N,N-Dimethylamino)methyl 4-ethyl-2-propyl-1-[[2'-(tetrazol-5-yl)biphenyl-4-yl]methyl]imidazole-5-carboxylate] | – | –

Row | Molecule | IC50 (AII receptor) [nM] | ED30 (Renal Hypertensive Rats) [mg/kg] | Oral Antihypertensive Effects in Renal Hypertensive Rats ED30 (Renal Hypertensive Rats) [mg/kg]
8 | CCCc1nc(CC)c(C(=O)OCOC(=O)C(C)(C)C)n1Cc1ccc(-c2ccccc2-c2nnn[nH]2)cc1 [Example 5, Trimethylacetoxymethyl 4-ethyl-2-propyl-1-[[2'-(tetrazol-5-yl)biphenyl-4-yl]methyl]imidazole-5-carboxylate] | 2 | 0.03 | –
9 | Trimethylacetoxymethyl 4-ethyl-2-propyl-1-[[2'-(N-trimethylacetoxymethyl(tetrazol-5-yl))biphenyl- 4-yl]methyl]imidazole-5-carboxylate [Example 6] | 20 | – | –
10 | CCCc1nc(CC)c(C(=O)OC(C)OC(=O)OC(C)(C)C)n1Cc1ccc(-c2ccccc2-c2nn[nH]n2)cc1 (stereo not drawn) [Example 12] | 5 | 0.3 | –
11 | CCCc1nc(CC)c(C(=O)OCOC(=O)OC(C)(C)C)n1Cc1ccc(-c2ccccc2-c2nnn[nH]2)cc1 [Example 9, t-Butoxycarbonyloxymethyl 4-ethyl-2-propyl-1-[[2'-(tetrazol-5-yl)biphenyl-4-yl]methyl]imidazole-5-carboxylate] | 6 | 0.02 | –

From patent publication US5310929A, “Prodrugs of imidazole carboxylic acids as angiotensin II receptor antagonists” (E. I. Du Pont de Nemours and Company, priority 1992, dated 1994)
